Data published in patent US8604042B2, “Bi-aryl meta-pyrimidine inhibitors of kinases” (TargeGen, Inc., priority 2005, dated 2013).
pIC50: −log10 of the molar value. Where a name gives a salt, the structure may show the parent alone.

molecular target: T1, recombinant JAK2 (Homo sapiens, UniProt O60674); experiment: IC50 value determinations for Jak2 kinase, luminescence-based kinase assay (Kinase-Glo); type: biochemical; details: Table 1
T1 construct: purchased Upstate Cell Signaling Solutions
T1 sequence (O60674 808-1132 limits assumed): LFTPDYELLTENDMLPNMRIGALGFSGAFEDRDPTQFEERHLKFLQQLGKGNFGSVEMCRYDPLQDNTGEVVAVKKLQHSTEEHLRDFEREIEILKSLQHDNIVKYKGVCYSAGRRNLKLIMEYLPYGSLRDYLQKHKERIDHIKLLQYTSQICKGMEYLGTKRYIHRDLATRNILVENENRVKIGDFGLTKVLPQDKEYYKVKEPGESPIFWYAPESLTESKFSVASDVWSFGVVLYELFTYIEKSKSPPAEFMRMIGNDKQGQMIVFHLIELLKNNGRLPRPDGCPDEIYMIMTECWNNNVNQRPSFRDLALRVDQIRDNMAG

| Compound | pIC50 |
| --- | --- |
| CC(=O)N1CCN(c2ccc(Nc3ncc(C)c(Nc4cccc(S(=O)(=O)NC(C)(C)C)c4)n3)cc2)CC1 [3-{2-[4-(4-Acetyl-piperazin-1-yl)-phenylamino]-5-methyl-pyrimidin-4-ylamino}-N-tert-butyl-benzenesulfonamide] | 7.73 |
| Cc1cnc(Nc2ccc(-c3nnn[nH]3)cc2)nc1Nc1cccc(S(=O)(=O)NC(C)(C)C)c1 [N-tert-Butyl-3-{5-methyl-2-[4-(1H-tetrazol-5-yl)-phenylamino]-pyrimidin-4-ylamino}-benzenesulfonamide] | 7.01 |
| Cc1cnc(Nc2ccc(OC3CCNCC3)cc2)nc1Nc1cccc(C(=O)N2CCCC2)c1 [(3-{5-Methyl-2-[4-(piperidin-4-yloxy)-phenylamino]-pyrimidin-4-ylamino}-phenyl)-pyrrolidin-1-yl-methanone] | 6.95 |
| CCOC(=O)c1cccc(Nc2nc(Nc3ccc(N4CCN(C)CC4)cc3)ncc2C)c1C [2-Methyl-3-{5-methyl-2-[4-(4-methyl-piperazin-1-yl)-phenylamino]-pyrimidin-4-ylamino)-benzoic acid ethyl ester] | 7.56 |
| Cc1cnc(Nc2ccc(C(C)N3CCOCC3)cc2)nc1Nc1cccc(S(=O)(=O)NC(C)(C)C)c1 (centres unmarked) [N-tert-Butyl-3-{5-methyl-2-[4-(1-morpholin-4-yl-ethyl)-phenylamino]-pyrimidin-4-ylamino}-benzenesulfonamide] | 7.53 |
| Cc1cnc(Nc2ccc(OCCN3CCCC3)cc2)nc1Nc1ccc(C(F)(F)F)cc1 [N2-(4-(2-(pyrrolidin-1-yl)ethoxy)phenyl)-N4-(4-(trifluoromethyl)phenyl)-5-methylpyrimidine-2,4-diamine hydrochloride] | 7.40 |
| COc1cc(Nc2nc(Nc3ccc(CN4CCNCC4)cc3)ncc2C)ccc1Cl [N4-(4-Chloro-3-methoxy-phenyl)-5-methyl-N2-(4-piperazin-1-ylmethyl-phenyl)-pyrimidine-2,4-diamine] | 7.82 |
| Cc1cnc(Nc2ccc(OCCN3CCCC3)cc2)nc1Nc1ccc(Cl)c(C(F)(F)F)c1 [N2-(4-(2-(pyrrolidin-1-yl)ethoxy)phenyl)-N4-(4-chloro-3-(trifluoromethyl)phenyl)-5-methylpyrimidine-2,4-diamine] | 7.63 |
| Cc1cnc(Nc2ccc(OCCN3CCCC3)cc2)nc1Nc1cccc([N+](=O)[O-])c1 [N2-(4-(2-(pyrrolidin-1-yl)ethoxy)phenyl)-5-methyl-N4-(3-nitrophenyl)pyrimidine-2,4-diamine Hydrochloride] | 7.21 |
| Cc1cnc(Nc2ccc(OCCN3CCCC3)cc2)nc1Nc1cccc(S(N)(=O)=O)c1 [3-{5-Methyl-2-[4-(2-pyrrolidin-1-yl-ethoxy)-phenylamino]-pyrimidin-4-ylamino}-benzenesulfonamide] | 7.14 |
| Cc1cnc(Nc2ccc(OCCN3CCCC3)cc2)nc1Nc1ccc(Cl)c(Cl)c1 [N4-(3,4-Dichloro-phenyl)-5-methyl-N2-[4-(2-pyrrolidin-1-yl-ethoxy)-phenyl]-pyrimidine-2,4-diamine] | 7.59 |
| Cc1cnc(Nc2ccc(N3CCN(C)CC3)cc2)nc1Nc1cccc(S(=O)(=O)NC2CCCCC2)c1 [N-Cyclohexyl-3-{5-methyl-2-[4-(4-methyl-piperazin-1-yl)-phenylamino)-pyrimidin-4-ylamino}-benzenesulfonamide] | 7.40 |
| Cc1cnc(Nc2ccc(N3CCN(C)CC3)cc2)nc1Nc1cccc(C)c1C [5-methyl-N4-(2,3-dimethylphenyl)-N2-(4-(4-methylpiperazin-1-yl)phenyl)pyrimidine-2,4-diamine Hydrochloride] | 7.80 |
| Cc1cnc(Nc2ccc(OCCN3CCCC3)cc2)nc1Nc1ccc(F)c2[nH]ccc12 [N2-(4-(2-(pyrrolidin-1-yl)ethoxy)phenyl)-N4-(7-fluoro-1H-indol-4-yl)-5-methylpyrimidine-2,4-diamine Hydrochloride] | 8.03 |
| Cc1cnc(Nc2ccc(N3CCN(C)CC3)cc2)nc1Nc1cccc(S(C)(=O)=O)c1 [5-methyl-N2-(4-(4-methylpiperazin-1-yl)phenyl)-N4-(3-(methylsulfonyl)phenyl) pyrimidine-2,4-diamine] | 6.67 |
| COc1cc(Nc2nc(Nc3ccc(OC4CCNCC4)cc3)ncc2C)cc(OC)c1 [N4-(3,5-dimethoxyphenyl)-5-methyl-N2-(4-(piperidin-4-yloxy)phenyl)pyrimidine-2,4-diamine trifluoroacetate] | 6.86 |
| CCCS(=O)(=O)c1cccc(Nc2nc(Nc3ccc(N4CCN(C)CC4)cc3)ncc2C)c1 [5-methyl-N2-(4-(4-methylpiperazin-1-yl)phenyl)-N4-(3-(propylsulfonyl)phenyl) pyrimidine-2,4-diamine] | 8.10 |
| Cc1cnc(Nc2ccc(OC3CCNCC3)cc2)nc1Nc1cccc(C(F)(F)F)c1C [5-Methyl-N4-(2-methyl-3-trifluoromethyl-phenyl)-N2-[4-(piperidin-4-yloxy)-phenyl]-pyrimidine-2,4-diamine] | 7.28 |

| Compound | pIC50 |
| --- | --- |
| COc1cc(Nc2nc(Nc3ccc(OCCN4CCCC4)cc3)ncc2C)ccc1F [N4-(4-Fluoro-3-methoxy-phenyl)-5-methyl-N2-[4-(2-pyrrolidin-1-yl-ethoxy)-phenyl]-pyrimidine-2,4-diamine] | 7.83 |
| Cc1ccc(Nc2nc(Nc3ccc(-n4ccnc4)cc3)ncc2C)cc1S(=O)(=O)NC(C)(C)C [N-tert-Butyl-5-[2-(4-imidazol-1-yl-phenylamino)-5-methyl-pyrimidin-4-ylamino]-2-methyl-benzenesulfonamide] | 7.05 |
| CNC(=O)c1cccc(Nc2nc(Nc3ccc(OCCN4CCCC4)cc3)ncc2C)c1 [N-Methyl-3-{5-methyl-2-[4-(2-pyrrolidin-1-yl-ethoxy)-phenylamino]-pyrimidin-4-ylamino}-benzamide] | 6.59 |
| Cc1cc(C)cc(Nc2nc(Nc3ccc(OC4CCNCC4)cc3)ncc2C)c1 [5-methyl-N4-(3,5-dimethylphenyl)-N2-(4-(piperidin-4-yloxy)phenyl)pyrimidine-2,4-diamine hydrochloride] | 7.43 |
| COc1cccc(Nc2nc(Nc3ccc(OCCN4CCCC4)cc3)ncc2C)c1 [drawing 301, N2-(4-(2-(pyrrolidin-1-yl)ethoxy)phenyl)-N4-(3-methoxyphenyl)-5-methylpyrimidine-2,4-diamine Hydrochloride] | 7.28 |
| Cc1cnc(Nc2nc(Nc3ccc(OCCN4CCCC4)cc3)ncc2C)nc1Nc1cccc(C(C)(C)C)c1 [N2-(4-(2-(pyrrolidin-1-yl)ethoxy)phenyl)-N4-(4-(3-tert-butylphenylamino)-5-methylpyrimidin-2-yl)-5-methylpyrimidine-2,4-diamine Hydrochloride] | 6.82 |
| Cc1cnc(Nc2ccc(N3CCN(C)CC3)cc2)nc1Nc1cccc(C(=O)NC(C)C)c1 [N-Isopropyl-3-{5-methyl-2-[4-(4-methyl-piperazin-1-yl)-phenylamino]-pyrimidin-4-ylamino}-benzamide] | 6.27 |
| COc1cc(Nc2nc(Nc3cccc(N4CCNCC4)c3)ncc2C)ccc1Cl [N4-(4-Chloro-3-methoxy-phenyl)-5-methyl-N2-(3-piperazin-1-yl-phenyl)-pyrimidine-2,4-diamine] | 8.02 |
| Cc1cnc(Nc2ccc(OC3CCNCC3)cc2)nc1Nc1cccc(C)c1C [5-methyl-N4-(2,3-dimethylphenyl)-N2-(4-(piperidin-4-yloxy)phenyl)pyrimidine-2,4-diamine Hydrochloride] | 8.36 |
| COc1ccc(Nc2ccnc(Nc3ccc(S(=O)(=O)NCCN4CCCC4)cc3)n2)cc1 [4-[4-(4-Methoxy-phenylamino)-pyrimidin-2-ylamino]-N-(2-pyrrolidin-1-yl-ethyl)-benzenesulfonamide trifluoroacetate] | 4.97 |
| CC(=O)Nc1cccc(Nc2nc(Nc3ccc(OC4CCNCC4)cc3)ncc2C)c1C [N-(2-Methyl-3-(5-methyl-2-[4-(piperidin-4-yloxy)-phenylamino]-pyrimidin-4-ylamino}-phenyl)-acetamide] | 6.84 |
| Cc1cnc(Nc2ccc(N3CCN(C)CC3)cc2)nc1Nc1cccc(C(N)=O)c1C [2-Methyl-3-{5-methyl-2-[4-(4-methyl-piperazin-1-yl)-phenylamino]-pyrimidin-4-ylamino}-benzamide] | 7.58 |
| Cc1cnc(Nc2cccc(N3CCN(CCO)CC3)c2)nc1Nc1cccc(S(=O)(=O)NC(C)(C)C)c1 [N-tert-Butyl-3-(2-{3-[4-(2-hydroxy-ethyl)-piperazin-1-yl]-phenylamino}-[5-methyl-pyrimidin-4-ylamino]-benzenesulfonamide Hydrochloride] | 7.39 |
| Cc1cnc(Nc2ccc(N3CCOCC3)cc2)nc1Nc1cccc(S(=O)(=O)NC(C)(C)C)c1 [N-tert-Butyl-3-[5-methyl-2-(4-morpholin-4-yl-phenylamino)-pyrimidin-4-ylamino]-benzenesulfonamide] | 7.92 |
| COc1cc(Nc2nc(Nc3ccc(-n4cccn4)cc3)ncc2C)ccc1Cl [N4-(4-Chloro-3-methoxy-phenyl)-5-methyl-N2-(4-pyrazol-1-yl-phenyl)-pyrimidine-2,4-diamine trifluoroacetate] | 7.45 |
| Cc1cc(Nc2nc(Nc3ccc(OCCN4CCCC4)cc3)ncc2C)ccc1Cl [N2-(4-(2-(pyrrolidin-1-yl)ethoxy)phenyl)-N4-(4-chloro-3-methylphenyl)-5-methylpyrimidine-2,4-diamine Hydrochloride] | 7.91 |
| Cc1cnc(Nc2ccc(N3CCN(C)CC3)cc2)nc1Nc1cccc(C(C)(C)C)c1 [N4-(3-tert-butylphenyl)-5-methyl-N2-(4-(4-methylpiperazin-1-yl)phenyl)pyrimidine-2,4-diamine Hydrochloride] | 8.33 |
| COc1cc(Nc2nc(Nc3cccc(OCCN4CCCC4)c3)ncc2C#N)c(Cl)cc1Cl [drawing 299, 4-(2,4-Dichloro-5-methoxy-phenylamino)-2-[3-(2-pyrrolidin-1-yl-ethoxy)-phenylamino]-pyrimidine-5-carbonitrile] | 4.98 |

same assay, conditions: Table 5, Initial Screening Hits for JAK2

| Compound | pIC50 |
| --- | --- |
| COc1cc(Nc2nc(Nc3ccc(OCCN4CCCC4)cc3)ncc2C#N)c(Cl)cc1Cl [Compound 1] | 5.20 |

same assay, conditions: Table 6

| Compound | pIC50 |
| --- | --- |
| COc1cc(Nc2nc(Nc3ccc(OCCN4CCCC4)cc3)ncc2C)ccc1Cl [Compound 6] | 8.10 |
| COc1cccc(Nc2nc(Nc3ccc(OCCN4CCCC4)cc3)ncc2C)c1 [Compound 5] | 7.28 |

same assay, conditions: Table 7, SAR for the P3 region

| Compound | pIC50 |
| --- | --- |
| COc1cc(Nc2nc(Nc3ccc(OCCN4CCCC4)cc3)ncc2C)ccc1Cl [Compound 6] | 8.10 |
| COc1cccc(Nc2nc(Nc3ccc(OCCN4CCCC4)cc3)ncc2C)c1 [Compound 5] | 7.28 |
